This is an account of results in PMC7613620, “Reaction hijacking of tyrosine tRNA synthetase as a whole-of-life-cycle antimalarial strategy” (Science (New York, N.Y.), 2022).

The term IC50 denotes the concentration that gives 50% inhibition. For orientation: inhibition means the relative decrease from the control value, in per cent.

One data set relates to HepG2. The data set can be described thus: HepG2 Cell Titer-GLO luminescent cell viability assay. It is filed as cell-based. To be noted: Homo sapiens, HepG2, 72 h, read-out: HepG2 (luminescence) IC50(72h). The method, then:
561 Mammalian cell culture experiments
562 The HepG2 (Human hepatocyte carcinoma) cell line was procured from ATCC (American Type
563 Culture Collection, Manassas, USA; HB-8065) and viability assessed using Cell Titer-GLO luminescent
564 cell viability assay reagents (Promega, catalogue number: G7570) (47, 48). For the assay, 2000 cells/well
565 were plated in 384-well plates 24 h prior to the experiment and incubated at 37°C in a CO2 incubator. The
566 medium was removed and cells were treated with fresh medium containing either vehicle (0.5% DMSO)
567 or serially diluted test compounds or doxorubicin (1.3 nM to 25 µM) in a final volume of 50 µl/well and
568 further incubated for 72 h at 37°C in a CO2 incubator.
569 were treated with 5 µl of 1% Triton X-100 (final assay conc. 0.1%). Following incubation, 25 µl of medium
570 was discarded and 25 µl of Cell Titer-GLO reagent was added to each well and the plate was kept on a plate
571 shaker for 15 min at 25°C with shaking at 300 rpm. Luminescence signals were measured in a Spectramax
572 M5 reader (Molecular Devices). […]
585 37°C humidified incubator as adherent semi-confluent monolayers in complete Dulbecco’s Modified Eagle
586 Media (c-DMEM). DMEM (Gibco™, Thermo Fisher Scientific, Australia) was supplemented with 10%
(ATP-based viability assays read luminescence as a measure of living cells.)

The subject of data set [1] is P. falciparum male gametes. The data set can be described thus: Dual gamete formation assay (male). It is filed as cell-based. The following applies: Plasmodium falciparum. As to the method: (§1) 604 Activity against transmissible stages of P. falciparum
(§2) 605 Activity against male gametes was assessed using the dual gamete formation assay (PfDGFA)(32).
(§3) 606 Compounds were incubated with mature stage V gametocytes ([…], kind gift from Professor Chris Janse
(§4) 607 at Leiden University Medical Center (LUMC), the Netherlands) for 48 hours in 384 well plates before
(§5) 608 gamete formation was triggered by a drop in temperature and addition of xanthurenic acid. Male gamete
(§6) 609 exflagellation was recorded and quantified by automated microscopy. The ability of female gametes to
(§7) 611 Multiple data sets using different gametocyte cultures were collected on each of two separate days.
(§8) 613 Activity against exoerythrocytic stages
(§9) 614 Primary human hepatocytes (H1500.H15B+ Lot No. HC10-10 Cryopreserved human hepatocytes)
(§10) 615 were cultured for 2 days and then overlaid with P. falciparum NF54 sporozoites and compounds.
(§11) 616 Supernatant was refreshed daily with fresh compounds.

In data set [2] the test system is P. falciparum female gametes. The data set can be described thus: Dual gamete formation assay (female). It is filed as cell-based. The following applies: Plasmodium falciparum. As to the method: as §1, §2, §3, §4, §5, §6, §7, §8, §9, §10, §11
For data set [3], the target named is ubiquitin activating enzyme (UAE) (Homo sapiens, UniProt P22314). The data set is described as follows: E1-E2 transthiolation HTRF assay, UAE. Type of data set: biochemical.
ubiquitin activating enzyme (UAE), sequence (P22314 whole entry): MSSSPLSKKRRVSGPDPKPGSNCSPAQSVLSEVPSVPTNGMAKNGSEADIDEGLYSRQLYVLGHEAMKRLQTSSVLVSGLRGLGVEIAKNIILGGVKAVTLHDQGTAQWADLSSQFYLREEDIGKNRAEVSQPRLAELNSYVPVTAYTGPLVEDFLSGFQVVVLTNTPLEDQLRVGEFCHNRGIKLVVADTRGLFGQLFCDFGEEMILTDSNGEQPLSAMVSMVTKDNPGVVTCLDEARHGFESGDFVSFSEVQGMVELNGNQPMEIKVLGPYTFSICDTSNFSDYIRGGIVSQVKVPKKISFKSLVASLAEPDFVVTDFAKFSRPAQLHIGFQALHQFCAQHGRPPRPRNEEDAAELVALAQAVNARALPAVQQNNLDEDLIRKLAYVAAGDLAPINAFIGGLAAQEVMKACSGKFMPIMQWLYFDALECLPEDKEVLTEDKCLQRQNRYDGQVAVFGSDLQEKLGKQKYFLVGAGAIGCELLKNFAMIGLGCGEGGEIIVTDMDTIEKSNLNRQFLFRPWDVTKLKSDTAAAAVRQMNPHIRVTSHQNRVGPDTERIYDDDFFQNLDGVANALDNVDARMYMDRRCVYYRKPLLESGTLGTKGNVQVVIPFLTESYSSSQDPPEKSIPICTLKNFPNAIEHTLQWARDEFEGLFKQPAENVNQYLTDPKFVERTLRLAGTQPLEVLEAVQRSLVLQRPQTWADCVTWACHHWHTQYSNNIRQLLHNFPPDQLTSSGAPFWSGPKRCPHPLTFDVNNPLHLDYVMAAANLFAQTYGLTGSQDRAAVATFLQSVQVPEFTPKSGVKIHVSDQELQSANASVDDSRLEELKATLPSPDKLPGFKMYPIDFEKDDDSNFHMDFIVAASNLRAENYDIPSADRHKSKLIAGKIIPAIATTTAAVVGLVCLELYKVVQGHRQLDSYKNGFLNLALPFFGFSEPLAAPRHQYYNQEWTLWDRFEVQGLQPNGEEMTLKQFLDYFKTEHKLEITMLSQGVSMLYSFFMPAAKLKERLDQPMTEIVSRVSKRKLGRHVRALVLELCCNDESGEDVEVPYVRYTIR
Source text: (§12) 592 E1-E2 Transthiolation Assays
(§13) 593 An Homogeneous Time-Resolved Fluorescence (HTRF) enzyme assay was employed to evaluate
(§14) 594 compound activity against ATG7 as previously described (11). In this assay, a Flag-tagged ATG8 homolog
(§15) 595 (GABA type A receptor-associated protein; GABARAP) is activated by ATG7 and then transthiolated to a
(§16) 596 GST-tagged E2 (ATG3). The product of the enzyme reaction, Flag-GABARAP-ATG3-GST, is quantified
(§17) 597 by measuring FRET between Europium-Cryptate labelled monoclonal anti-Flag M2 (CisBio International,
(§18) 598 Cat# 61FG2KLB) and PHYCOLINK goat anti-GST allophycocyanin (Prozyme, PJ252p1). The activation
(§19) 599 and transthiolation of ubiquitin by Ubiquitin Activating Enzyme, activation and transthiolation of NEDD8
(§20) 600 by NEDD8 Activating Enzyme. […]
as §3, §4
(§21) 608 gamete formation was triggered by a drop in temperature and addition of xanthurenic acid. […]
as §7, §8
(§22) 614 Primary human hepatocytes (H1500.H15B+ Lot No. HC10-10 Cryopreserved human hepatocytes) […]

Data set [4] deals with SUMO-activating enzyme (SAE) (Homo sapiens, UniProt Q9UBT2). The data set can be described thus: biochemical. The following applies: read-out: SAE IC50 HTRF.
SUMO-activating enzyme (SAE), sequence (Q9UBT2 whole entry): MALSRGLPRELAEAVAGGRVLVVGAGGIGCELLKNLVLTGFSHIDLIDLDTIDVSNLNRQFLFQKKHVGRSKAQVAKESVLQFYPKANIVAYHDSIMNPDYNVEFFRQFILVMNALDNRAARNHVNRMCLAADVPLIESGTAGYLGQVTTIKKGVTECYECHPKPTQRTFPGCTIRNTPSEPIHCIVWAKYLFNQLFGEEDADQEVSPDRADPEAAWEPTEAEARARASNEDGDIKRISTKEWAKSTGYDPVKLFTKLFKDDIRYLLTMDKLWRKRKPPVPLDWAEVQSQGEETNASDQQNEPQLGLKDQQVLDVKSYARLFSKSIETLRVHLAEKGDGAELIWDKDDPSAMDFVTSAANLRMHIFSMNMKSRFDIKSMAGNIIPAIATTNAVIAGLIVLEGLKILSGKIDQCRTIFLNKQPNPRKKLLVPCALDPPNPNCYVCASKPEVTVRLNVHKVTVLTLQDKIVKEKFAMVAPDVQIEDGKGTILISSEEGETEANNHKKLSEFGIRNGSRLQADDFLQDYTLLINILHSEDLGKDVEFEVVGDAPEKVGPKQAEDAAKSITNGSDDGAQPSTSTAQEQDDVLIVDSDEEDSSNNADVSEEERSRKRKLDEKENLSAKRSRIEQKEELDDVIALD
SUMO-activating enzyme (SAE), sequence (Q9UBE0 whole entry partner): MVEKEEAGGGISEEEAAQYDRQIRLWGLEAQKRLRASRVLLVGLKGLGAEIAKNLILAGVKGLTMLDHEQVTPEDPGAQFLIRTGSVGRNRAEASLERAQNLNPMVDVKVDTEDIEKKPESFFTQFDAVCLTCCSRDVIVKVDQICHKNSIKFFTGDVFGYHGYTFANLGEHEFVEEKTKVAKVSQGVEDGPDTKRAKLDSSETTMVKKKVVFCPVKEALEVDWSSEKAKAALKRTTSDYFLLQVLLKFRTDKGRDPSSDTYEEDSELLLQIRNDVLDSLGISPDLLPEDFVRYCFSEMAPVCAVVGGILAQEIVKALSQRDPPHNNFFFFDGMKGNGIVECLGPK
Source text: as §12, §13, §14, §15, §16, §17, §18, §19, §20, §3, §4, §21, §7, §8, §22
For orientation: TR-FRET usually uses a lanthanide donor and a delayed reading to cut background.

For data set [5] the following is noted: SCID, mouse, in vivo, ip, 50 mg/kg. As to the method: 625 of 50 mg/kg of compound on day 3 post-infection and measuring the effect on blood parasitemia by
626 microscopic analysis of Giemsa-stained blood smears (on days 3, 4, 5, 6 and 7 post-infection). Mice were
630 Human biological samples were sourced ethically; and their research use was in accord with the terms of
631 the informed consent. All animal studies were ethically reviewed and carried out in accredited facilities in
632 accordance with the relevant country’s directives and the institution’s Policy on the Care, Welfare and
633 Treatment of Animals.
635 Plasma exposure in infected mouse model
637 blood samples (20 μL) were obtained at time points up to 24 hours after the first administration. Protein was
638 precipitated with acetonitrile and the remaining compound was assessed by LC-MS/MS in the selected reaction
641 Rat pharmacokinetics (PK) analyses
642 Sprague-Dawley rats (11 weeks old) were sourced from Hilltop Lab Animals, Inc (Scottdale, Pennsylvania,
643 USA). ML901 was formulated in EtOH: DMAC: PEG400: H2O at 1:1:4:4 (v/v) and 10% captisol in 50 […]
648 0.5% formic acid in methanol and the supernatants were analysed by positive ion electrospray LC-MS for
649 the administered compound. Non-compartmental pharmacokinetic parameters were calculated from […]
660 IGM Genomics Center on the Illumina HiSeq 2500 in RapidRun mode to generate 100bp paired-end reads.

Where [6] appears, read: 48 h incubation with stage V gametocytes.

For `Nc1ncnc2c1c(OC(F)F)nn2[C@@H]1O[C@H](COS(N)(=O)=O)[C@@H](O)[C@H]1O` [ML901], the IC50 in the data set with HepG2 is 1630 nM; in data set [1] (setting [6]), 130 ± 10 nM; in data set [2] (setting [6]), 4700 ± 300 nM; in data set [3] it was > 1000 nM; in data set [4] it was > 1000 nM. For the same compound, the inhibition at 25 µM amounted to 99% in data set [1] (at 25 µM) and 81% in data set [2] (at 25 µM). The “exposure (area under the curve)” value in data set [5] was 580 µM·h.
